Experimental data: patent US20090291150A1, “METHOD AND COMPOSITIONS FOR TREATING AND […] BY […]-SENSING ION CHANNEL ACTIVITY” (priority 2008, published 2009)

Key:
[1] = tested on: PTZ-evoked lethal seizures; assay: CO2 inhalation at onset of PTZ-evoked generalized seizures, survival; type: in vivo, mouse; conditions: 90 mg/kg PTZ IP, 10% CO2 in air for 15 minutes from onset of generalized seizures
Procedure: Age (13-16 weeks) and gender-matched ASIC1a+/+ and ASIC1a−/− mice were injected IP with 90 mg/kg PTZ to test the anti-epileptic effects of CO2. A high dose of PTZ was administered to evoke lethal seizures in mice of both genotypes (FIG. 6a). Kaplan-Meier survival analysis of ASIC1a+/+ and ASIC1a−/− mice in response to 90 mg/kg PTZ while breathing compressed air was conducted (+/+, n 7; −/−, n=7). Both mice had the same rate of reduced survival (Mantel-Cox Log Rank, p=0.582).
After the onset of generalized-clonic seizures (identified behaviorally by clonus in all four limbs), compressed air or 10% CO2 (in air) was rapidly administered in an airtight Plexiglas chamber for 15 minutes (FIG. 6b). The onset latency and time of CO2 administration was similar between genotypes (inset) (unpaired T-test, df (14), t=0.663, p=0.518). The chamber was perfused with CO2 until minute 15, and then switched to compressed air for the duration of the trial (+/+, n=8; −/−, n=8). […] In the ASIC1a−/− mice, seizures continued to progress rapidly to death. All of the ASIC1a+/+ mice survived until the CO2 was switched back to air at minute 15, whereupon the mice rapidly died. The results verified the in vitro findings and taught that ASIC1a also mediates the anti-epileptic effects of low pH in vivo.

ASIC1a = biological target: T1, ASIC1a (Mus musculus, UniProt Q6NXK8); assay: Kainate-induced seizures after ICV injection of PcTx1 in wild-type mice; type: in vivo; conditions: ICV injection 2 hours before kainate 20 mg/kg IP
T1 construct: from tissue; host or cells: brain of living wild-type mice (C57/B16 background), ICV injection
T1 sequence (Q6NXK8 1-526): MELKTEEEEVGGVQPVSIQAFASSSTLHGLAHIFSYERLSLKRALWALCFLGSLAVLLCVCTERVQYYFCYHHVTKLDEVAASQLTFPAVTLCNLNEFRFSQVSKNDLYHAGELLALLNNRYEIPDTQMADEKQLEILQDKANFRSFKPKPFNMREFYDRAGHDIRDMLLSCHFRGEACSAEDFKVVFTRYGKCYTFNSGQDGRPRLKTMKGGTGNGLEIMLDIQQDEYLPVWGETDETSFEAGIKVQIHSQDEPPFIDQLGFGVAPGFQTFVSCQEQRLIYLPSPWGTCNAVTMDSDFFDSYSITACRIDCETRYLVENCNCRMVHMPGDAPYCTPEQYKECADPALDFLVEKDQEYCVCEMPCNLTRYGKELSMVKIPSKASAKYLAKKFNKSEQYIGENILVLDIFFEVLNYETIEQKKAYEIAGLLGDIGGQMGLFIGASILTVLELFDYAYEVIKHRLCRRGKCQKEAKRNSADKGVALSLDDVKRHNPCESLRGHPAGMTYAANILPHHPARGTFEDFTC
Procedure: Similar effects on seizure activity with both ASIC1a gene disruption and pharmalogical blockade indicate that developmental abnormalities were not responsible for the effects in ASIC1a−/− mice.
Left-lateral, ICV guide cannulae were implanted in anesthetized mice (relative to bregma: anteroposterior −0.3 mm, lateral−1.0 mm, ventral=3.0 mm) and verified by methylene blue injection after euthanasia. Three to five days later, 5 uL or PcTx1-containing venom (SpiderPharm, Yarnell, Ariz.) ([…]) was injected in ACSF (in mM: NaCl 124, KCl 3, NaH2PO4 1.2, MgSO4 1.2, CaCl2 2, NaHCO3 26) or ACSF alone into wild-type mice using a 10 uL-Hamilton syringe connected to a 30-gauge injection (over 10 seconds). Two hours later, mice were injected with kainate (20 mg/kg, IP) then mouse behavior was scored. Continuous, tonic-clonic seizures were identified by tonus and clonus in all four limbs with loss of posture lasting greater than 60 seconds.

| Molecule | effect on lethal seizures (survival) ([1]; ASIC1a-/- mice) | effect on lethal seizures (survival) ([1]; WT (ASIC1a+/+) mice) | incidence of continuous GTCS following kainate injection (ASIC1a) |
| --- | --- | --- | --- |
| O=C=O [CO2, carbon dioxide] | had little effect | prevented lethal seizures | – |
| psalmotoxin 1 [PcTx1] | – | – | increased the incidence of continuous GTCS |
